Data from the OPERA property sets (Mansouri et al. 2018).

`CCCCC1C(=O)NC(=O)N(C)C1=O` (stereo not drawn) gave a logP of 1.1.

`Cc1ccc(C)c(Oc2cccc(C(=O)NC(C)(C)C)c2)c1` gave a logP of 4.78.

Work on `O=C(CCN1CCCCC1)CN1C(=O)CC(c2ccc(Cl)cc2)C1=O` (stereo not drawn) yielded a logP of 2.23.

Work on `c1ccc(C2(N3CCCCC3)CCCCC2)cc1` yielded a logP of 4.69.

In the case of `Cc1ccc(Cn2cc(F)c(=O)[nH]c2=O)cc1`, the logP was 1.5.

`COc1ccc(C(=O)CCCC(=O)O)cc1` gave a logP of 1.63.

For `O=C1COC(=O)N1c1ccccc1`, the logP was 0.93.

Compound `N=C(NCC#CCC(NC(=O)C(Cc1ccc2ccccc2c1)Cc1cccc2ccccc12)C(=O)NC(CC1CCCCC1)C(O)CC(=O)NCCN1CCOCC1)N[N+](=O)[O-]` (stereo not drawn) has a logP of 4.73.

For `Cn1c([N+](=O)[O-])cnc1COC(N)=O`, the logP was -0.38.

In the case of `CCN(CC)CCCN1c2ccccc2Sc2ccc(Cl)cc21`, the logP was 6.46.

For `CC(C)(C)OC(=O)C(C(=O)OC(C)(C)C)=C1SCCS1`, the logP was 4.01.

With `CCOC(=O)NC1=NCC(c2ccc(CO)cc2)N1C` (stereo not drawn) the logP was 0.84.

`CC(C)c1ccc(OCC(OC(=S)n2ccnc2)C(C)(C)C)cc1` (stereo not drawn) showed a logP of 5.21.

`COC(=O)NC1=NCC(c2cc(Br)ccc2Br)N1C` (stereo not drawn) showed a logP of 2.77.

Work on `N#Cc1ccc(Cl)cc1` yielded a logP of 2.47.

Work on `COc1cccc(C2C(=O)c3ccccc3C2=O)c1` yielded a logP of 2.88.

In the case of `CNC(=O)Oc1cc(C)ccc1C(C)C`, the logP was 2.84.

In the case of `COC1CC(OC2CCC3(C)C2CCC2C3CCC3(C)C(C4=CC(=O)OC4)CCC23O)OC(C)C1O` (stereo not drawn), the logP was 2.37.

Compound `O=C(O)CCCOc1cccc2ccccc12` has a logP of 3.5.

`CCc1nc(S(=O)(=O)Nc2c(F)cccc2F)nn1-c1ccccc1` showed a logP of 3.7.

`Cc1ccccc1C(=O)CCN1CCCCC1` gave a logP of 3.54.

For `NC(=S)NNCc1ccc2c(c1)OCO2`, the logP was 0.14.

With `CCCCCCCCCCCCOC(=O)N(C)SN(C)C(=O)Oc1ccc2c(c1)OCO2` the logP was 7.39.

Compound `CCOP(=O)(OCC)Oc1ccc([N+](=O)[O-])cc1` has a logP of 1.98.

`C[C@H](CN1CCOCC1)C(C(=O)N1CCCC1)(c1ccccc1)c1ccccc1` gave a logP of 3.61.

`NC(=O)COc1ccc(OCCNCC(O)COc2ccccc2)cc1` (stereo not drawn) gave a logP of 1.1.

For `Cc1nn(-c2ccccc2)c(Nc2ccc(C(F)(F)F)cc2)c1[N+](=O)[O-]`, the logP was 3.89.

`Cc1cc2n(c1C(=O)c1ccc(Cl)cc1)CCC2C(=O)O` (stereo not drawn) showed a logP of 3.6.

For `CCNC(=O)CCn1ccc(=O)c(O)c1C`, the logP was -0.82.

`CC(O)Cn1cnc2c1c(=O)n(C)c(=O)n2C` (stereo not drawn) showed a logP of -0.77.

In the case of `CC(C)(C)C(COc1ccc(Br)cc1)OC(=S)n1ccnc1` (stereo not drawn), the logP was 5.11.

`NS(=O)(=O)c1cc2c(cc1Cl)NC(C(Cl)(Cl)Cl)NS2(=O)=O` (stereo not drawn) gave a logP of 0.82.

Compound `CC(N)C(=O)O` (stereo not drawn) has a logP of -2.85.

In the case of `CC(CCC(=O)NCc1ccccc1)C1CCC2C3C(O)CC4CC(O)CCC4(C)C3CC(O)C12C` (stereo not drawn), the logP was 3.54.

`CCCCCCCS[C@@H]1O[C@H](CO)[C@H](O)[C@H](O)[C@H]1O` gave a logP of 1.5.

`N#Cc1ccccn1` showed a logP of 0.45.

Work on `CC(C)(C)C(COc1ccc(Cl)cc1)OC(=O)n1ccnc1` (stereo not drawn) yielded a logP of 4.19.

Work on `CC(C)COC(=O)N(C)C` yielded a logP of 2.

Compound `CCCCCCCC=CCCCCCCC(=O)O` has a logP of 6.58.

Work on `Nc1cc(Cl)c(Cl)c(Cl)c1Cl` yielded a logP of 4.27.

In the case of `CCCCNC(=O)CCn1ccc(=O)c(O)c1C`, the logP was -0.1.

Compound `O=C(O)Cc1ccc(O)c(O)c1` has a logP of 0.98.

For `CNc1nc(C)c(C(=O)CCN2CCCCC2)s1`, the logP was 2.21.

With `OCCN(CCO)CCCc1ccc(CSc2ccccc2)cc1` the logP was 3.31.

Work on `Nc1nc(=O)n(C2OC(CO)CC2F)cc1F` (stereo not drawn) yielded a logP of -0.92.

`CC(C(O)c1ccccc1)N(C)C` (stereo not drawn) showed a logP of 1.7.

For `Cc1ccc(C)c(C(=O)NS(=O)(=O)c2ccc(N)cc2)c1`, the logP was 2.19.

`CCCCCCn1ccc(=O)c(O)c1C` showed a logP of 1.9.

Work on `Cc1cc(O)c(N(C)C)nn1` yielded a logP of 0.24.

`CNc1nc(C)c(C(=O)CCN2CCOCC2)s1` gave a logP of 0.95.

`COc1ccc(-c2nc3ncc(N)cc3[nH]2)c(OC)c1` showed a logP of 1.62.

`CC(=O)O.CCCCCCCCCCCCNC(=N)N` gave a logP of 1.15.

With `CCCC(=NOCC)C1C(=O)CC(C)(C2CC2)OC1=O` (stereo not drawn) the logP was 3.28.

For `Cc1ccc(Cc2cnc(NCCCCc3ncc(Br)cc3C)[nH]c2=O)cn1`, the logP was 3.57.

Work on `CNc1cnn(-c2ccccc2)c(=O)c1Cl` yielded a logP of 1.19.

With `CC1c2nc3ccccc3c(=O)n2CN1c1ccccc1` (stereo not drawn) the logP was 1.79.

Compound `CNC(=O)N1C(=O)CN=C(c2ccccc2)c2cc([N+](=O)[O-])ccc21` has a logP of 1.76.

In the case of `CC=COCC(O)Cn1ccnc1[N+](=O)[O-]` (stereo not drawn), the logP was 0.28.

In the case of `Cc1c(O)c(=O)ccn1CCC(=O)N(C)C`, the logP was -1.16.

Work on `C=C1C(=O)OC2C1C(O)CC(C)C1CCC(=O)C12C` (stereo not drawn) yielded a logP of 0.23.

Compound `COC(=O)NC1=NCC(c2ccccc2Br)N1` (stereo not drawn) has a logP of 1.85.

Compound `COc1ccc(C(O)C(=O)O)cc1` (stereo not drawn) has a logP of 0.63.

Work on `O=[N+]([O-])c1cnc(N2CCNC2=S)s1` yielded a logP of 1.7.

With `Cc1onc(-c2ccccc2Cl)c1C(=O)NC1C(=O)N2C1SC(C)(C)C2C(=O)O` (stereo not drawn) the logP was 2.48.

In the case of `Cc1cccn2c(=O)ccnc12`, the logP was 0.79.

With `CCCCN(C)N=Nc1ccc(C(N)=O)cc1` the logP was 2.46.

In the case of `CCc1c(C)nc2cccc(C)n2c1=O`, the logP was 1.86.

`COc1cc(S(C)=O)ccc1-c1nc2ncc(N)cc2[nH]1` (stereo not drawn) showed a logP of 0.33.

`NS(=O)(=O)c1cc2c(cc1F)N=CNS2(=O)=O` showed a logP of -0.29.

For `CCCC(=O)OCC1OC(n2cc(F)c(=O)[nH]c2=O)CC1OC(=O)CCC` (stereo not drawn), the logP was 1.9.

`CC(Cl)CCl` (stereo not drawn) gave a logP of 1.98.

`O=c1[nH]cc(F)c(=O)n1Oc1ccccc1` gave a logP of 0.8.

For `COC(=O)NC1=NCC(c2cccc(Cl)c2)N1C` (stereo not drawn), the logP was 2.1.

Work on `CCC(CC)(C(=O)NC(N)=S)C(=O)OC` yielded a logP of 1.82.

Work on `COC(=O)NC1=NCC(c2ccccc2)N1C` (stereo not drawn) yielded a logP of 1.57.

With `COC(=O)NC1=NCC(c2ccc(C(C)C)cc2)N1` (stereo not drawn) the logP was 2.6.

In the case of `CCCN1CCOC2c3cc(O)ccc3OCC21` (stereo not drawn), the logP was 1.97.

With `Nc1ccc(C(=O)O)cc1F` the logP was 1.41.

In the case of `CCCN1CCOC2c3cccc(O)c3OCC21` (stereo not drawn), the logP was 1.93.

`CCCOc1ccc(OCC(OC(=S)n2ccnc2)C(C)(C)C)cc1` (stereo not drawn) gave a logP of 5.03.

`Cc1ccc2c(c1)C1CN(C)CCC1N2C(=O)C=Cc1ccccc1` (stereo not drawn) gave a logP of 3.49.

For `COc1ccc2c(c1)[nH]c1c(C)nccc12`, the logP was 3.56.

`Nc1ccc(C(F)(F)F)cc1` showed a logP of 1.95.

In the case of `CCCCCCN(C)C(=O)c1cccc(Oc2ccccc2)c1`, the logP was 5.01.

Work on `COC(=O)n1cc(CC(NC(=O)CC2NC(=O)C3C4CCC(CC4)N3C2=O)C(=O)NC(Cc2ccccc2)C(=O)N(C)Cc2ccccc2)c2ccccc21` (stereo not drawn) yielded a logP of 4.05.

Compound `CC(=O)NC(CC(N)=O)C(N)=O` (stereo not drawn) has a logP of -2.41.

In the case of `CCC(C)(C)c1ccc(CC(=O)O)cc1`, the logP was 3.48.

Work on `Cn1cnc([N+](=O)[O-])c1Cl` yielded a logP of 1.06.

Compound `COC(=O)C1CC2C3CCC4=CC(=O)C=CC4(C)C3C(O)CC2(C)C1C(=O)CO` (stereo not drawn) has a logP of 1.7.

Compound `O=C(Nc1ccn(C2CC(O)C(CO)O2)c(=O)n1)c1ccccc1` (stereo not drawn) has a logP of 0.67.

`NC(=O)c1cnc2n(c1=O)CCCC2` showed a logP of -0.38.

In the case of `CC1CCC2C(C)C(O)OC3OC4(C)CCC1C32OO4` (stereo not drawn), the logP was 2.19.

`Cc1nn(-c2ccccc2)c(Nc2ccc([N+](=O)[O-])cc2)c1[N+](=O)[O-]` gave a logP of 2.78.

Work on `COC(=O)c1cnc2n(c1=O)C(C)CCC2` (stereo not drawn) yielded a logP of 0.16.

With `OC(Cn1ccnc1)(c1ccc(F)cc1)c1ccc(-c2ccncc2)cc1` (stereo not drawn) the logP was 2.47.

`Cn1nnnc1SCC1=C(C(=O)O)N2C(=O)[C@@H](NC(=O)[C@H](O)c3ccccc3)[C@H]2SC1` gave a logP of 0.5.

Work on `O=C(O)c1cc(I)ccc1O` yielded a logP of 3.34.

In the case of `CC(=O)OCC1=C(C(=O)OCOC(=O)C(C)(C)C)N2C(=O)C(NC(=O)CSc3ccncc3)C2SC1` (stereo not drawn), the logP was 1.63.

`CCCC(=NOCC)C1C(=O)CC2(CCSCC2)OC1=O` (stereo not drawn) showed a logP of 2.9.

With `CC(C)(C)C(COc1ccc(-c2ccccc2)cc1)OC(=S)n1ccnc1` (stereo not drawn) the logP was 6.06.

Work on `CN(Cc1ccc(Br)cc1)N=O` yielded a logP of 1.57.

`CC(C)(C)NCC(O)COc1cccc2c1C[C@H](O)[C@H](O)C2` (stereo partly drawn) gave a logP of 0.81.

`O=C(O)COc1ccc(Oc2ccc(Cl)cc2Cl)cc1` showed a logP of 4.51.

In the case of `O=c1[nH]c(=S)ccn1[C@H]1C=C[C@@H](CO)O1`, the logP was -0.28.

For `Cc1ccc(C(N)=S)cc1`, the logP was 2.01.

`NCc1ccccc1Sc1ccccc1CO` showed a logP of 2.39.

`CCCCC(=O)CC(=O)CCCC` gave a logP of 3.56.

For `COc1cccc2c1C(=O)c1c(O)c3c(c(O)c1C2=O)CC(O)(C(C)=O)CC3OC1CC(NC(=O)CN(C)C)C(O)C(C)O1` (stereo not drawn), the logP was 1.26.

`CCCCC(=O)OC1C(CO)OC(n2cnc3c(OC)ncnc32)C1OC(=O)CCCC` (stereo not drawn) gave a logP of 3.83.

With `COc1ccc2c(=O)c(C)c(-c3ccccc3)oc2c1CN(C)C` the logP was 3.65.

In the case of `CON1C(=O)CC2(CCCC2)C1=O`, the logP was 1.15.

Compound `COc1cc(N)ccc1C(=O)O` has a logP of 0.45.

Compound `CCCN(C)C(=O)c1cccc(Oc2ccccc2)c1` has a logP of 3.44.

With `Oc1c(Cl)cc(Cl)c(Cl)c1O` the logP was 3.6.

Work on `O=c1[nH]c(=S)ccn1[C@H]1CC[C@@H](CO)O1` yielded a logP of -0.21.

In the case of `CCOC(=O)Nc1ccc2c(c1)N(C(=O)CCN1CCOCC1)c1ccccc1S2`, the logP was 2.98.

Work on `CC(C)NC(=N)NC(=N)Nc1ccc(Cl)cc1` yielded a logP of 2.53.

In the case of `CCCCn1ccc(=O)c(O)c1C`, the logP was 0.7.

Work on `COc1cccc(C2(O)CCCCC2CN(C)C)c1` (stereo not drawn) yielded a logP of 2.51.

`COc1ccccc1/C=C/C(=O)O` gave a logP of 2.54.

For `CNC(=S)NCCCCc1nc[nH]c1C`, the logP was 0.85.

Work on `COC(=O)C1=C(C)NC(C)=C(C(=O)OC(C)C)C1c1cccc2nonc12` (stereo not drawn) yielded a logP of 4.28.

`CCN1Cn2c(nc3ccccc3c2=O)C1C` (stereo not drawn) gave a logP of 1.02.

Work on `OC[C@H]1NC[C@H](O)[C@@H](O)[C@@H]1O` yielded a logP of -1.8.

`CC(C)(C)c1ccc(OCC(OC(=O)n2ccnc2)C(C)(C)C)cc1` (stereo not drawn) gave a logP of 4.82.

With `CCCOC(=O)n1c(NC(=O)OC)nc2cc(C(=O)c3ccccc3)ccc21` the logP was 3.43.

For `CC1c2cccc(O)c2C(=O)C2=C(O)C3(O)C(=O)C(C(N)=O)=C(O)C(N(C)C)C3C(O)C21` (stereo not drawn), the logP was -0.02.

`CC[C@H](C)C(=O)O[C@H]1CCC=C2C=C[C@H](C)[C@H](CC[C@@H]3C[C@@H](O)CC(=O)O3)[C@H]21` showed a logP of 3.95.

`NS(=O)(=O)c1cc2c(cc1Cl)NC(C(Cl)Cl)NS2(=O)=O` (stereo not drawn) gave a logP of 0.62.

`CN(Cc1ccccc1)C(=O)C(Cc1ccccc1)NC(=O)C(Cc1cn(C(=O)OCc2ccccc2)c2ccccc12)NC(=O)CC1NC(=O)C2C3CCC(CC3)N2C1=O` (stereo not drawn) gave a logP of 5.66.

`Cc1ccc(Cl)c(NS(=O)(=O)c2nc(C)n(-c3ccccc3)n2)c1Cl` gave a logP of 4.4.

In the case of `Nc1ncn(C2OC(CO)C(O)C2O)c(=O)n1` (stereo not drawn), the logP was -2.17.

`CC1=NS(=O)(=O)c2cc(S(N)(=O)=O)c(Cl)cc2N1` gave a logP of 0.03.
